This passage reports Activity results from ChEMBL document CHEMBL2331314, “Dorsamin-A's, glycerolipids carrying a dehydrophenylalanine ester moiety from the seed-eating larvae of the bruchid beetle Bruchidius dorsalis” (J Nat Prod, 2013).

SMILES strings stand for the structures.

The assay is described as follows: Antioxidant activity assessed as concentration required to 50 % ABTS radical scavenging activity absorbance at 734 nm. It counts as functional.
As to `Cc1c(C)c2c(c(C)c1O)CCC(C)(C(=O)O)O2` (stereo not given), the Activity is 19 µM.

Regarding `COC(=O)C(=O)Cc1ccccc1`, the Activity was 8.8 µM.

Regarding `CCCCCCCC/C=C/CCCCCCCC(=O)OC[C@H](COC(=O)/C(N)=C/c1ccccc1)OC(=O)CCCCCCC/C=C/CCCCCCCC`, the Activity stood at 11 µM.

As for `COC(=O)/C=C/c1ccccc1`, the Activity is above 1000 µM.

On to `COC(=O)/C(N)=C/c1ccccc1`, for which the Activity came to 9.6 µM.
